Experimental data reported in PubChem BioAssay (NCI).
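Protocol summary: plate cells (96-well), add compound at 5 concentrations, incubate 48 h, interpolate endpoints linearly. At the TGI there is no net growth.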

What was measured:
Assay in all cases: NCI anticancer screen, dose series, 48 h
[1] = test system: HCT-116 colon
[2] = test system: MALME-3M melanoma
[3] = test system: IGROV1 ovarian
[4] = test system: SW-620 colon
[5] = test system: NCI-H522 lung
[6] = test system: HT29 colon
[7] = test system: BT-549 breast
[8] = test system: A549 NSCLC
[9] = test system: KM12 colon
[10] = test system: SK-OV-3 ovarian
[11] = test system: SR leukemia
[12] = test system: SK-MEL-28 melanoma
[13] = test system: NCI/ADR-RES ovarian
[14] = test system: UACC-257 melanoma
[15] = test system: MDA-MB-435
[16] = test system: OVCAR-4 ovarian
[17] = test system: K-562 leukemia
[18] = test system: SF-295 CNS
[19] = test system: CAKI-1 renal
[20] = test system: M14 melanoma
[21] = test system: EKVX NSCLC
[22] = test system: MCF7 breast
[23] = test system: HCT-15 colon
[24] = test system: MOLT-4 leukemia
[25] = test system: SK-MEL-2 melanoma
[26] = test system: OVCAR-3 ovarian
[27] = test system: OVCAR-8 ovarian
[28] = test system: RPMI-8226 leukemia
[29] = test system: TK-10 renal
[30] = test system: HOP-62 NSCLC
[31] = test system: SF-539 CNS
[32] = test system: DU-145 prostate
[33] = test system: NCI-H460 lung
[34] = test system: CCRF-CEM leukemia
[35] = test system: MDA-MB-231 breast
[36] = test system: ACHN renal
[37] = test system: SF-268 CNS
[38] = test system: HS 578T breast
[39] = test system: UO-31 renal
[40] = test system: OVCAR-5 ovarian
[41] = test system: LOX IMVI melanoma
[42] = test system: UACC-62 melanoma
[43] = test system: HCC-2998 colon
[44] = test system: HL-60(TB) leukemia
[45] = test system: PC-3 prostate
[46] = test system: SNB-19 CNS
[47] = test system: 786-0 renal
[48] = test system: RXF 393 renal
[49] = test system: U251 CNS
[50] = test system: MDA-N
[51] = test system: NCI-H226 lung
[52] = test system: SNB-75 CNS
[53] = test system: COLO 205 colon
[54] = test system: SN12C renal
[55] = test system: SK-MEL-5 melanoma
[56] = test system: NCI-H23 lung
[57] = test system: HOP-92 NSCLC
[58] = test system: A498 renal

Measured: TGI

Cc1ccc(N(C)S(=O)(=O)c2ccc([N+](=O)[O-])cc2)cc1
> 100 µM: [1] | [2] | [3] | [4] | [5] | [6] | [7] | [8] | [9] | [10] | [11] | [12] | [13] | [14] | [15] | [16] | [17] | [18] | [19] | [20] | [21] | [22] | [23] | [24] | [25] | [26] | [27] | [28] | [29] | [30] | [31] | [32] | [33] | [34] | [35] | [36] | [37] | [38] | [39] | [40] | [41] | [42] | [43] | [44] | [45] | [46] | [47] | [48] | [49] | [50] | [51] | [52] | [53] | [54]

NC(CSC(=O)c1ccccc1)C(=O)O (stereo not given)
> 100 µM: [1] | [2] | [3] | [4] | [5] | [55] | [6] | [7] | [8] | [9] | [10] | [11] | [12] | [13] | [14] | [15] | [16] | [18] | [19] | [20] | [21] | [22] | [23] | [56] | [24] | [25] | [26] | [27] | [28] | [29] | [30] | [31] | [32] | [33] | [34] | [35] | [36] | [37] | [38] | [39] | [40] | [41] | [42] | [57] | [58] | [44] | [45] | [46] | [47] | [48] | [49] | [50] | [51] | [52] | [53] | [54]
